Measurements: US9609868B2, “Alkoximino-substituted anthranilic acid diamides as pesticides” (BAYER CROPSCIENCE AKTIENGESELLSCHAFT, priority 2013, dated 2017)

How the values were obtained:
Spodoptera frugiperda = Spodoptera frugiperda - spray test (SPODFR); assay type: in vivo; details: application rate 100 g/ha, maize leaf disks
Method: Spodoptera frugiperda—Spray Test (SPODFR)
Solvent: 78.0 parts by weight of acetone • • 1.5 parts by weight of dimethylformamide
(§1) Emulsifier: 0.5 parts by weight of alkylaryl polyglycol ether
(§2) To produce a suitable active compound preparation, 1 part by weight of active compound is mixed with the stated amounts of solvent and emulsifier, and the concentrate is diluted with emulsifier-containing water to the desired concentration.
Leaf disks of maize (Zea mays) are sprayed with an active compound preparation of the desired concentration and, after drying, populated with caterpillars of the armyworm (Spodoptera frugiperda).
After the desired period of time, the efficacy in % is determined. 100% means that all the caterpillars have been killed; 0% means that no caterpillars have been killed.

Myzus persicae = Myzus persicae - spray test (MYZUPE); assay type: in vivo; details: application rate 100 g/ha, Chinese cabbage leaf disks
Method: Myzus persicae—Spray Test (MYZUPE)
Solvent: 78 parts by weight of acetone • • 1.5 parts by weight of dimethylformamide
as §1, §2
Disks of Chinese cabbage leaves (Brassica pekinensis) infested by all stages of the green peach aphid (Myzus persicae) are sprayed with an active compound preparation of the desired concentration.
After the desired period of time, the efficacy in % is determined. 100% means that all the aphids have been killed; 0% means that none of the aphids have been killed.

[1] = log P by HPLC on reversed-phase column (C18), EEC directive 79/831 Annex V.A8; assay type: physicochemical; details: HPLC reversed-phase C18, 43° C., data refer to the E isomer
Method: The log P values reported in the tables and Preparation Examples above were determined in accordance with EEC directive 79/831 Annex V.A8 by HPLC (High Performance Liquid Chromatography) using a reversed-phase column (C18). Temperature 43° C. The calibration is effected with unbranched alkan-2-ones (having 3 to 16 carbon atoms), for which the log P values are known.

| SMILES | efficacy (caterpillars killed) (Spodoptera frugiperda) [%] | efficacy (aphids killed) (Myzus persicae) [%] | log p ([1]; Table A) | log p ([1]; Table C) | log p ([1]; Table B) |
| --- | --- | --- | --- | --- | --- |
| CON=Cc1cc(C)c(NC(=O)c2cc(Br)nn2-c2ncccc2Cl)c(C(=O)NNS(C)(=O)=O)c1 [A-09] | 100 | 90 | 2.30 | – | – |
| CON=Cc1cc(C)c(NC(=O)c2cc(OCC(F)F)nn2-c2ncccc2Cl)c(C(=O)NNC(=O)OC)c1 (mixture of isomers) [A-37] | 100 | 100 | 2.37 | – | – |
| COCC(C)NC(=O)c1cc(C=NOC)cc(C)c1NC(=O)c1cc(OCC(F)F)nn1-c1ncccc1Cl (stereo not drawn) [C-39] | 100 | 100 | – | 2.93 | – |
| CON=Cc1cc(C)c(NC(=O)c2cc(OC)nn2-c2ncccc2Cl)c(C(=O)NNC(=O)OC)c1 (mixture of isomers) [A-40] | 100 | 90 | 2.45 | – | – |
| CON=Cc1cc(C)c(NC(=O)c2cc(Br)nn2-c2ncccc2Cl)c(C(=O)N(C)NC(=O)Oc2ccccc2)c1 [A-05] | 100 | 100 | 3.46 | – | – |
| COCCOC(=O)NN(C)C(=O)c1cc(C=NOC)cc(C)c1NC(=O)c1cc(Br)nn1-c1ncccc1Cl [A-13] | 100 | 90 | 2.72 | – | – |
| CON=Cc1cc(C)c(NC(=O)c2cc(Br)nn2-c2ncccc2Cl)c(C(=O)NNC(=O)Oc2ccccc2)c1 [A-15] | 100 | 90 | 3.03 | – | – |
| COCC(C)NC(=O)c1cc(C=NOC)cc(C)c1NC(=O)c1cc(CF)nn1-c1ncccc1Cl (stereo not drawn) [C-54] | 100 | 90 | – | 2.47 | – |
| CON=Cc1cc(C)c(NC(=O)c2cc(C(F)(F)F)nn2-c2ncccc2Cl)c(C(=O)NC2CS(=O)(=O)C2)c1 (mixture of isomers) [B-04] | 100 | 90 | – | – | 2.78 |
| CON=Cc1cc(C)c(NC(=O)c2cc(OCC(F)F)nn2-c2ncccc2Cl)c(C(=O)N(C)C)c1 [C-38] | 100 | – | – | 2.61 | – |
| CON=Cc1cc(C)c(NC(=O)c2cc(CF)nn2-c2ncccc2Cl)c(C(=O)N(C)C)c1 [C-55] | 100 | – | – | 2.19 | – |
| C#CCNC(=O)c1cc(C=NOC)cc(C)c1NC(=O)c1cc(OCC(F)F)nn1-c1ncccc1Cl [C-52] | 100 | 90 | – | 2.78 | – |
| CON=Cc1cc(C)c(NC(=O)c2cc(Br)nn2-c2ncccc2Cl)c(C(=O)N(NC(C)=O)C(C)=O)c1 [A-11] | 100 | 100 | 2.67 | – | – |
| CON=Cc1cc(C)c(NC(=O)c2cc(C(F)(F)F)nn2-c2ncccc2Cl)c(C(=O)N(C)NC(C)=O)c1 [A-30] | 100 | – | 2.75 | – | – |
| CON=Cc1cc(C)c(NC(=O)c2cc(Br)nn2-c2ncccc2Cl)c(C(=O)N(C)NC(=O)OC(C)C)c1 [A-16] | 100 | – | 3.28 | – | – |
| C=CCOC(=O)NN(C)C(=O)c1cc(C=NOC)cc(C)c1NC(=O)c1cc(Br)nn1-c1ncccc1Cl [A-07] | 100 | – | 3.12 | – | – |
| C=CCOC(=O)NN(C)C(=O)c1cc(C=NOC)cc(C)c1NC(=O)c1cc(C(F)(F)F)nn1-c1ncccc1Cl [A-28] | 100 | – | 3.41 | – | – |
